Assay results taken from patent US20180008573A1, “METHODS AND COMPOSITIONS FOR REDUCING DAMAGE ASSOCIATED WITH OXIDATIVE PHOSPHORYLATION” (USANA Health Sciences, Inc., priority 2016, published 2018).

Key:
human PPARδ = target: T1, human PPARδ (Homo sapiens, UniProt Q03181); assay: PPARδ agonist reporter assay (Gal4 hybrid receptor, luciferase, CHO cells); format: cell-based
T1 construct: expressed in transfected cells; host or cells: CHO
T1 sequence (Q03181 211-439 limits assumed): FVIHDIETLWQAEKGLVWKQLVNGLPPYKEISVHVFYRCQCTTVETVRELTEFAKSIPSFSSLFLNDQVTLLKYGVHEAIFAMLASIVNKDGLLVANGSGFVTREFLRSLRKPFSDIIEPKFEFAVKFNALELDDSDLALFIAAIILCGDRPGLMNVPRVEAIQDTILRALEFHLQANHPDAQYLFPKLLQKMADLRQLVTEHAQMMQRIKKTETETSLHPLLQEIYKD

human NF-κB = assay: NF-κB antagonist reporter assay (NF-κB GRE-luciferase, HEK293 cells); format: cell-based;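 note: reporter cells carry native NF-κB receptor with firefly luciferase under upstream response elements, with a vehicle control included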
C. elegans strain CB5586 = assay: C. elegans phenotypic lifespan screening (Kaplan-Meier, Log-Rank, Fisher's Exact Test); format: in vivo; conditions: for restricted mean lifespan, # of Days: DMSO control 13.23
Procedure: Dilutions of the test formulations were applied to individual populations of C. elegans and the lifespan of each population was monitored. Any changes in the lifespan of an individual population compared to a control population were recorded and correlated to the respective test formulation (N356 or N357) and the respective dilution (0.1 mg/ml, 1 mg/ml, and 10 mg/ml).
The […] and N357 formulations were each prepared as individual 100 mg/ml stock solutions in dimethyl sulfoxide (DMSO). Serial dilutions of each stock solution were then prepared at 0.1 mg/ml, 1 mg/ml, and 10 mg/ml in DMSO. Control solutions of DMSO only were also prepared. Synchronous aged adult populations of C.elegans strain CB5586 worms were prepared. The CB5586 strain comprises a pharyngeal GFP (green fluorescent protein) tag and a mutation in the bus-5 gene. The pharyngeal GFP tag allows for fluorescent images of the worm populations to be taken. The mutation in the bus-5 gene causes the loss of normal cuticle antigens that permits the cuticle of the worms to become permeable to the test formulations and allow direct uptake of the test formulations to avoid interaction of the test formulations with protective mechanisms of the gut channel. Each serial dilution of each test formulation was added to a separate population of the prepared worms. The control solutions were also added to separate populations of the prepared worms. The populations of the prepared worms were then maintained on standard nematode growth media (NGM) agar plates at 20° C. with sufficient food (Escherichia coli strain OP-50).
Each worm population was then monitored by fluorescent imaging to determine the number of living and dead worms as a function of time. The fluorescent imaging was analyzed by software that recognized and counted worms based on their fluorescent intensity compared to background fluorescence. […] The ability to distinguish between living and dead worms allowed the number of living worms and cumulative number of dead worms to be monitored against time. Worm populations from a selection of fluorescent images were manually checked to verify that the software had accurately counted the number of living and dead worms.
The counts of the living and dead worms as a function of time were then analyzed for each of the worm populations and used to prepare Kaplan-Meier survival curves and associated statistics for each of the worm populations. […] The median lifespan is shown as the length of time after the last mitotic division that 50% of the test population remains viable when compared to the control population. The maximum lifespan extension is shown as the length of time after the last mitotic division that 5% of the test population remains viable when compared to the control population.
The counts of the living and dead worms as a function of time and the Kaplan-Meier survival curves and the associated statistics were then analyzed for each of the worm populations. The analysis included determining mean and median lifespan. The analysis included a non-parametric test, the Log-Rank test, that compares two survival functions for the overall lifespan assay and provides a reliable p-value summarizing the whole experiment. The analysis also included Fisher's Exact Test that calculated the significance of survival function comparisons at multiple specific time points throughout the experiment, rather than for the overall lifespan. The results of the analysis are shown below in Tables 10-17.
Phenotypic screening was carried out as described in EXAMPLE 2 for various individual compounds of the N357 formulation. […] Alpha lipoic acid was sourced from PureBulk USA as a racemic mix of R and S stereoisomers and was assigned a sample number of N198. Hesperidin was sourced from Sigma Aldrich at ≧80% purity and was assigned a sample number of N347. […]

Nrf2 = target: T2, Nrf2 (Homo sapiens, UniProt Q16236); assay: Nrf2 signaling fluorescent reporter assay in human retinal epithelial cell line; format: cell-based; parameters: host or cells: human retinal epithelial cell line
T2 sequence (Q16236 1-605): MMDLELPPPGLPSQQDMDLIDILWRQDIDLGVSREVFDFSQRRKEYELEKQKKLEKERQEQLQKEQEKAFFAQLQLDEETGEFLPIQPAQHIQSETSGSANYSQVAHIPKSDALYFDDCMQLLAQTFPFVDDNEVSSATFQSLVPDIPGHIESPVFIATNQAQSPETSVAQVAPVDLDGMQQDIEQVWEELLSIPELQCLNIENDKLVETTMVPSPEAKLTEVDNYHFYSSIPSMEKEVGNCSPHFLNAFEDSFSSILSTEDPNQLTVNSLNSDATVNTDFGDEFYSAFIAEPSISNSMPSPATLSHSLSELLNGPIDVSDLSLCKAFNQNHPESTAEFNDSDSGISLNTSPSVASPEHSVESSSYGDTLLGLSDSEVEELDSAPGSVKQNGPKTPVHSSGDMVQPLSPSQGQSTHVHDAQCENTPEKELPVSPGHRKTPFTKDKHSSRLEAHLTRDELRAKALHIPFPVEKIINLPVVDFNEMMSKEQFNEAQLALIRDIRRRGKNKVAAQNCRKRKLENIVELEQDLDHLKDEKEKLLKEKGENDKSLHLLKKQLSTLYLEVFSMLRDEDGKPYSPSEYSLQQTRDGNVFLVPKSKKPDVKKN

PPARδ Fold-Activation (human PPARδ; 1.42 μg/ml active ingredient): 1.5 fold | PPARδ Fold-Activation (human PPARδ; 4.25 μg/ml active ingredient): 1.1 fold | PPARδ Fold-Activation (human PPARδ; 12.7 μg/ml active ingredient): 0.80 fold | PPARδ Fold-Activation (human PPARδ; 38.23 μg/ml active ingredient): 0.52 fold | PPARδ Fold-Activation (human PPARδ; 114.70 μg/ml active ingredient): 0.29 fold | minimum inducing concentration (Nrf2) (Nrf2; human retinal epithelial cell line): 1.75 µM
Structure (SMILES): O=C(O)CCCCC1CCSS1 (racemic) [Alpha lipoic acid, alpha lipoic acid]
NF-κB % Inhibition (human NF-κB; 1.42 μg/ml active ingredient): 3.1% | NF-κB % Inhibition (human NF-κB; 4.25 μg/ml active ingredient): −0.70% | NF-κB % Inhibition (human NF-κB; 12.7 μg/ml active ingredient): −6.1% | NF-κB % Inhibition (human NF-κB; 38.23 μg/ml active ingredient): 5.9% | NF-κB % Inhibition (human NF-κB; 114.70 μg/ml active ingredient): −14% | Statistically Significant Result (lifespan vs. DMSO control) (C. elegans strain CB5586; 0.1 mg/ml): Statistically significant increase | extension of lifespan (C. elegans strain CB5586; 0.1 mg/ml): about 12.5% | population age in days at 25% mortality (C. elegans strain CB5586; 0.1 mg/ml): 14 days | population age in days at 50% mortality (C. elegans strain CB5586; 0.1 mg/ml): 16 days | population age in days at 75% mortality (C. elegans strain CB5586; 0.1 mg/ml): 18 days | effect on chronological lifespan (C. elegans strain CB5586; 0.1 mg/ml and 10 mg/ml tested): significant positive and dose dependent increase of chronological lifespan | % Change in Mean Lifespan (C. elegans strain CB5586; 0.1 mg/ml vs. DMSO control): +12.5% | restricted mean lifespan, # of Days (C. elegans strain CB5586; 0.1 mg/ml): 14.89 days | Statistically Significant Result (lifespan vs. DMSO control) (C. elegans strain CB5586; 10 mg/ml): Statistically significant increase | extension of lifespan (C. elegans strain CB5586; 10 mg/ml): about 12.5% | population age in days at 25% mortality (C. elegans strain CB5586; 10 mg/ml): 14 days | population age in days at 50% mortality (C. elegans strain CB5586; 10 mg/ml): 16 days | population age in days at 75% mortality (C. elegans strain CB5586; 10 mg/ml): 18 days | % Change in Mean Lifespan (C. elegans strain CB5586; 10 mg/ml vs. DMSO control): +12.5% | restricted mean lifespan, # of Days (C. elegans strain CB5586; 10 mg/ml): 14.85 days | activation of Nrf2 (Nrf2; 100 μM and 30 μM against a control): demonstrated activation of Nrf2 at both 100 μM and 30 μM
